These are literature values, as cited in PMC10166914, “GTN057, a komaroviquinone derivative, induced myeloma cells' death in vivo and inhibited c‐MET tyrosine kinase” (Cancer Medicine, 2023).

A word on the IC50: it is the midpoint of a concentration-inhibition curve.

The subject of this series is MUM24 cells. The arrangement: method as in PMID 28882484. The conditions noted are these: read-out: IC50 antiproliferative activity; cited from earlier work.

On to `COc1c(O)c2c(c(O)c1C(C)C)C(=O)CC1C(C)(C)CCC[C@]1(O)C2` (stereo partly shown) [GTN054], for which the IC50 was 6.13 µM.
